Results published in ChEMBL document CHEMBL1909046, “DrugMatrix in vitro pharmacology data”.

What was measured:
[1] = target: Cytochrome P450 2E1 (Homo sapiens, UniProt P05181); settings: bti-tn-5b1-4; also: in other assays of this panel Not Active means under 50% inhibition at 10 µM
[2] = target: Matrix metalloproteinase-9 (Homo sapiens, UniProt P14780); experiment: biochemical; format: cell-based;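 also: inhibition of isolated MMP-9 enzyme activity toward a synthetic peptide substrate, from the DrugMatrix protease screening panel; in other assays of this panel Not Active means under 50% inhibition at 10 µM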
Matrix metalloproteinase-9, sequence (P14780 whole entry): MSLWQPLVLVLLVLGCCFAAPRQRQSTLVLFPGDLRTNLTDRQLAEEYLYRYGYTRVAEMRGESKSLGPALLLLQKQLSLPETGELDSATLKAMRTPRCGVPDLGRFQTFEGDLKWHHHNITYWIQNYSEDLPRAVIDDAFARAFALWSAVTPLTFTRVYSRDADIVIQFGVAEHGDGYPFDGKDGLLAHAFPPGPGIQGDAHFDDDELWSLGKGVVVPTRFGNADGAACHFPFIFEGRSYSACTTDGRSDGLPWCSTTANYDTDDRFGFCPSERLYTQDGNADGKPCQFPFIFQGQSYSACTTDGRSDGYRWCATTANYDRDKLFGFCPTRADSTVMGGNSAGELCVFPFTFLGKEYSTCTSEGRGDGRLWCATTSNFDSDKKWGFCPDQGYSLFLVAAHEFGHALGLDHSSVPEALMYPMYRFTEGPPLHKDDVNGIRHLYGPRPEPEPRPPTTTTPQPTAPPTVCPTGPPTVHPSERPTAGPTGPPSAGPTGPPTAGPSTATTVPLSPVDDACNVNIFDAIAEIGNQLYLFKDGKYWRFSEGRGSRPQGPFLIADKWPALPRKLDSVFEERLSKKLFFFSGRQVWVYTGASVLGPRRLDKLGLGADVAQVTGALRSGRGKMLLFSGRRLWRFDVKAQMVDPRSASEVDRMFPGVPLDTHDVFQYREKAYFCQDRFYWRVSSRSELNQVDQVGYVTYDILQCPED

[3] = DRUGMATRIX: GABAA, Muscimol, Central radioligand binding (ligand: [3H] Muscimol); format: cell membranes, Rattus norvegicus, Wistar, Brain, Membrane; settings: Not Active = under 50% inhibition at 10 µM
[4] = DRUGMATRIX: Tumor Necrosis Factor (TNF), Non-Selective radioligand binding (ligand: [125I] TNF-alpha); format: cell membranes, Membrane; settings: u-937; Not Active = under 50% inhibition at 10 µM
[5] = target: T1, Interstitial collagenase (Homo sapiens, UniProt P03956); experiment: biochemical; format: tissue-based, Rheumatoid synovial fibroblasts;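 also: MMP-1 enzyme inhibition assay using a peptide substrate; in other assays of this panel Not Active means under 50% inhibition at 10 µM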
T1 sequence (P03956 whole entry): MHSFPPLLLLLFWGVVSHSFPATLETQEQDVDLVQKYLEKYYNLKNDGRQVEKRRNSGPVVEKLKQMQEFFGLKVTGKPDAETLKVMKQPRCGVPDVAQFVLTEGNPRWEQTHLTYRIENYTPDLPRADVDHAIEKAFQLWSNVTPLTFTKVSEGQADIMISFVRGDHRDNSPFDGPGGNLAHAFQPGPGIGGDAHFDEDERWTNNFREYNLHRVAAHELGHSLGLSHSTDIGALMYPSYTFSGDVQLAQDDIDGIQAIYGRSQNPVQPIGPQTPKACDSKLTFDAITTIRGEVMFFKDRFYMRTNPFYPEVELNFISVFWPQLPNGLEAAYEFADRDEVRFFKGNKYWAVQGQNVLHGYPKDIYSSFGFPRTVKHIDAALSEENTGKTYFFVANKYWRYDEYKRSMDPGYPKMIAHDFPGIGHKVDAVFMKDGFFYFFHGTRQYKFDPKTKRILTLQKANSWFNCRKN

[6] = target: 5-hydroxytryptamine receptor 1B (Rattus norvegicus, UniProt P28564); format: cell membranes, Wistar, Cerebral cortex, Membrane; also: in other assays of this panel Not Active means under 50% inhibition at 10 µM
5-hydroxytryptamine receptor 1B, sequence (P28564 whole entry): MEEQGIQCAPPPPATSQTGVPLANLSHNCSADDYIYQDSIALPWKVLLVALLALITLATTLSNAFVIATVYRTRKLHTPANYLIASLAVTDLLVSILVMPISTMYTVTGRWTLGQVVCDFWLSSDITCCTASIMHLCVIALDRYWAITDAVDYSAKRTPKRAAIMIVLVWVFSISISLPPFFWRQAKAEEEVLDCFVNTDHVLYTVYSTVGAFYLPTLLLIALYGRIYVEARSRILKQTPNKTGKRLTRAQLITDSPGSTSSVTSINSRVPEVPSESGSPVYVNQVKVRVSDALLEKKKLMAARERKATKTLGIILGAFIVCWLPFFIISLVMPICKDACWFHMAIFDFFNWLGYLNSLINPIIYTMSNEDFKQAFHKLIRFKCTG

[7] = DRUGMATRIX: Calcium Channel Type L, Phenylalkylamine radioligand binding (ligand: [3H] (-)-Desmethoxyverapamil (D-888)); format: cell membranes, Rattus norvegicus, Wistar, Brain, Membrane; settings: Not Active = under 50% inhibition at 10 µM

Cytochrome P450 2E1, sequence (P05181 whole entry): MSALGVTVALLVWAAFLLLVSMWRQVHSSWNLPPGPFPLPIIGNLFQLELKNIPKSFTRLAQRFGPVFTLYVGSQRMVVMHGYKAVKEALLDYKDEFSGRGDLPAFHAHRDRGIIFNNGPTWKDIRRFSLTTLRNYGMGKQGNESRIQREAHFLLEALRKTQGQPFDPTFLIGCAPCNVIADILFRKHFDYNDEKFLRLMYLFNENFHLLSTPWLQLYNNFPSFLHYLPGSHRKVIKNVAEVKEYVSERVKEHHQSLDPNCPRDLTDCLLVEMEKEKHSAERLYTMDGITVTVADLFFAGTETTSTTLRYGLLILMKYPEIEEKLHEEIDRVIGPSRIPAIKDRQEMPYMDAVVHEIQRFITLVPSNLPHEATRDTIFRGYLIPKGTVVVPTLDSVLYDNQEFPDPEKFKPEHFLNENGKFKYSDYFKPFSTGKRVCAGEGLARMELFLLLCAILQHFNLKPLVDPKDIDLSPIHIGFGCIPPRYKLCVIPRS

CC(C)(C)NC(=O)[C@H]1CC[C@H]2[C@@H]3CC[C@H]4NC(=O)C=C[C@]4(C)[C@H]3CC[C@]12C [FINASTERIDE]
Not Active: IC50 [1] | Ki [1] | IC50 [2] | IC50 [3] | Ki [3] | IC50 [4] | Ki [4] | IC50 [5] | IC50 [6] | IC50 [7] | Ki [7]

Nc1ccn([C@@H]2O[C@H](CO)[C@@H](O)C2(F)F)c(=O)n1 [GEMCITABINE]
Not Active: IC50 [1] | Ki [1] | IC50 [2] | IC50 [3] | Ki [3] | IC50 [4] | Ki [4] | IC50 [5] | IC50 [6] | IC50 [7] | Ki [7]

N=C(N)NC(=O)Cc1c(Cl)cccc1Cl [GUANFACINE]
Not Active: IC50 [1] | Ki [1] | IC50 [2] | IC50 [3] | Ki [3] | IC50 [4] | Ki [4] | IC50 [5] | IC50 [6] | IC50 [7] | Ki [7]

Oc1c(Cl)cc(Cl)c(Cl)c1Cc1c(O)c(Cl)cc(Cl)c1Cl [HEXACHLOROPHENE]
Not Active: IC50 [1] | Ki [1] | IC50 [2] | IC50 [3] | Ki [3] | IC50 [4] | Ki [4] | IC50 [5] | IC50 [6] | IC50 [7] | Ki [7]

NNc1nncc2ccccc12 [HYDRALAZINE]
Not Active: IC50 [1] | Ki [1] | IC50 [2] | IC50 [3] | Ki [3] | IC50 [4] | Ki [4] | IC50 [5] | IC50 [6] | IC50 [7] | Ki [7]

COC1=C(OC)C(=O)C(CCCCCCCCCCO)=C(C)C1=O [IDEBENONE]
Not Active: IC50 [1] | Ki [1] | IC50 [2] | IC50 [3] | Ki [3] | IC50 [4] | Ki [4] | IC50 [5] | IC50 [6] | IC50 [7] | Ki [7]

CC(C)NNC(=O)c1ccncc1 [IPRONIAZID]
Not Active: IC50 [1] | Ki [1] | IC50 [2] | IC50 [3] | Ki [3] | IC50 [4] | Ki [4] | IC50 [5] | IC50 [6] | IC50 [7] | Ki [7]

Cc1c(OCC(F)(F)F)ccnc1C[S+]([O-])c1nc2ccccc2[nH]1 (configuration not stated) [LANSOPRAZOLE]
Not Active: IC50 [1] | Ki [1] | IC50 [2] | IC50 [3] | Ki [3] | IC50 [4] | Ki [4] | IC50 [5] | IC50 [6] | IC50 [7] | Ki [7]

O=c1cc(N2CCOCC2)oc2c(-c3ccccc3)cccc12 [LY-294002]
Not Active: IC50 [1] | Ki [1] | IC50 [2] | IC50 [3] | Ki [3] | IC50 [4] | Ki [4] | IC50 [5] | IC50 [6] | IC50 [7] | Ki [7]

COc1ccc2[nH]cc(CCNC(C)=O)c2c1 [MELATONIN]
Not Active: IC50 [1] | Ki [1] | IC50 [2] | IC50 [3] | Ki [3] | IC50 [4] | Ki [4] | IC50 [5] | IC50 [6] | IC50 [7] | Ki [7]

NC(=O)C[S+]([O-])C(c1ccccc1)c1ccccc1 (configuration not stated) [MODAFINIL]
Not Active: IC50 [1] | Ki [1] | IC50 [2] | IC50 [3] | Ki [3] | IC50 [4] | Ki [4] | IC50 [5] | IC50 [6] | IC50 [7] | Ki [7]

CCN(CC)CCOCCC1=CCC2CC1C2(C)C (configuration not stated) [MYRTECAINE]
Not Active: IC50 [1] | Ki [1] | IC50 [2] | IC50 [3] | Ki [3] | IC50 [4] | Ki [4] | IC50 [5] | IC50 [6] | IC50 [7] | Ki [7]
